# Laboratory results: ChEMBL document CHEMBL4420060, “Combinatorial therapies for the treatment of neoplasias using the opioid growth factor receptor” (2013)
# Activity calls are given as the source filed them. No cut-off for these calls is given here.
# Tests used:
# [1] = system: UMSCC1; assay: Growth inhibition of human UM-SCC-1 cells assessed as decrease in cell number at 1 uM by MTS assay relative to control; assay type: functional, cell-based
# [2] = system: MIA PaCa-2; assay: Growth inhibition of human MIAPaCa2 cells assessed as decrease in cell number at 1 uM incubated for 96 hrs by MTS assay relative to control; assay type: functional
# [3] = system: CAL-27; assay: Growth inhibition of human CAL27 cells assessed as decrease in cell number at 0.0001 uM with drug and media changed daily incubated for 48 hrs by MTS assay relative to control; assay type: functional; settings: CAL-27, 48 h, read-out: GI
# [4] = system: UMSCC1; assay: Growth inhibition of human UM-SCC-1 cells assessed as decrease in cell number at 0.01 uM incubated for 96 hrs in presence of 1 uM OGF by MTT assay relative to control; assay type: functional
# [5] = system: UMSCC1; assay: Antitumor activity against human UM-SCC-1 cells xenografted in nu/nu mouse assessed as mouse mortality at 8 mg/kg dosed every other day measured on day 19 relative to control; assay type: functional, organism-based
# [6] = system: UMSCC1; assay: Antitumor activity against human UM-SCC-1 cells xenografted in nu/nu mouse assessed as reduction in tumor at 8 mg/kg dosed every other day and co-treated with at 10 mg/kg/day OGF measured on 16th to 20th day of measurable tumors relative to control; assay type: functional, organism-based
# [7] = system: UMSCC1; assay: Growth inhibition of human UM-SCC-1 cells assessed as decrease in cell number at 0.01 uM in presence of 1 uM OGF incubated for 48 hrs by MTS assay relative to control; assay type: functional
# [8] = system: UMSCC1; assay: Antitumor activity against human UM-SCC-1 cells xenografted in nu/nu mouse assessed as reduction in tumor at 8 mg/kg dosed every other day and co-treated with 10 mg/kg/day OGF measured on 4th day of measurable tumors relative to control; assay type: functional; set-up: scale not given: the % may be the effect or the level left
# [9] = system: UMSCC1; assay: Inhibition of DNA synthesis in human UM-SCC-1 cells assessed as reduction in BrdU incorporation at 0.01 uM in presence of 1 uM OGF incubated for 72 hrs by fluorescence microscopy; assay type: functional
# [10] = system: UMSCC1; assay: Antitumor activity against human UM-SCC-1 cells xenografted in nu/nu mouse assessed as reduction in tumor at 8 mg/kg dosed every other day and co-treated with 10 mg/kg/day OGF measured on 22nd to 36th day of measurable tumors relative to control; assay type: functional, organism-based
# [11] = system: UMSCC1; assay: Growth inhibition of human UM-SCC-1 cells assessed as decrease in cell number at 0.01 uM incubated for 48 hrs followed by compound wash out by 50% replacement of media and measured after 48 hrs by MTS assay relative to control; assay type: functional, cell-based
# [12] = system: UMSCC1; assay: Growth inhibition of human UM-SCC-1 cells assessed as decrease in cell number at 0.01 uM incubated for 72 hrs in presence of 1 uM OGF by MTT assay relative to control; assay type: functional
# [13] = Toxicity in mouse xenografted with human UM-SCC-1 cells assessed as effect on large intestine/cecum/small bowel at 8 mg/kg dosed every other day by histological analysis; assay type: organism-based; settings: in vivo
# [14] = system: UMSCC1; assay: Antitumor activity against human UM-SCC-1 cells xenografted in nu/nu mouse assessed as latency time for measurable (62.5 mm3) tumors at 8 mg/kg dosed every other day (Rvb <=2 weeks); assay type: functional
# [15] = system: UMSCC1; assay: Antitumor activity against human UM-SCC-1 cells xenografted in nu/nu mouse assessed as mouse mortality at 8 mg/kg dosed every other day measured on day 40 co-treated with 10 mg/kg/day OGF relative to control; assay type: functional, organism-based
# [16] = system: UMSCC1; assay: Induction of apoptosis in human UM-SCC-1 cells assessed as increase in caspse-3 levels at 0.01 uM incubated for 6 days by flow cytometry; assay type: functional
# [17] = system: UMSCC1; assay: Growth inhibition of human UM-SCC-1 cells assessed as decrease in cell number at 0.01 uM in presence of 1 uM OGF incubated for 72 hrs by MTS assay relative to control; assay type: functional
# [18] = system: UMSCC1; assay: Growth inhibition of human UM-SCC-1 cells assessed as decrease in cell number at 0.01 uM in presence of 1 uM OGF incubated for 48 hrs followed by compound wash out by 50% replacement of media and measured after 48 hrs by MTS assay relative to control; assay type: functional, cell-based
# [19] = Toxicity in mouse xenografted with human UM-SCC-1 cells assessed as distension of abdomens with associated megacolon at 8 mg/kg dosed every other day by histological analysis; assay type: organism-based; settings: in vivo
# [20] = system: UMSCC1; assay: Antitumor activity against human UM-SCC-1 cells xenografted in nu/nu mouse assessed as reduction in tumor measured on 22nd to 36th day of measurable tumors at 8 mg/kg dosed every other day relative to control; assay type: functional, organism-based
# [21] = system: UMSCC1; assay: Antitumor activity against human UM-SCC-1 cells xenografted in nu/nu mouse assessed as time duration for delay in visible tumor development at 8 mg/kg dosed every other day and co-treated with 10 mg/kg/day OGF relative to control; assay type: functional
# [22] = Toxicity in mouse xenografted with human UM-SCC-1 cells assessed as induction of stool hardening at 8 mg/kg dosed every other day by histological analysis; assay type: organism-based; settings: in vivo
# [23] = system: UMSCC1; assay: Antitumor activity against human UM-SCC-1 cells xenografted in nu/nu mouse assessed as reduction in tumor measured on 6th day of measurable tumors at 8 mg/kg dosed every other day relative to control; assay type: functional; set-up: scale not given: the % may be the effect or the level left
# [24] = system: UMSCC1; assay: Growth inhibition of human UM-SCC-1 cells assessed as decrease in cell number at 0.01 uM in presence of 1 uM OGF and 1 uM opioid antagonist naloxone incubated for 24 to 96 hrs by MTS assay relative to control; assay type: functional
# [25] = system: UMSCC1; assay: Antitumor activity against human UM-SCC-1 cells xenografted in nu/nu mouse assessed as latency time for measurable (62.5 mm3) tumors at 8 mg/kg dosed every other day and co-treated with 10 mg/kg/day OGF (Rvb <=2 weeks); assay type: functional
# [26] = system: CAL-27; assay: Growth inhibition of human CAL27 cells assessed as decrease in cell number at 0.0001 uM with drug and media changed daily in presence of 1 uM OGF incubated for 48 hrs by MTS assay relative to control; assay type: functional
# [27] = system: UMSCC1; assay: Growth inhibition of human UM-SCC-1 cells assessed as decrease in cell number at 0.1 uM incubated for 72 hrs in presence of 1 uM OGF by MTT assay relative to control; assay type: functional
# [28] = system: UMSCC1; assay: Antitumor activity against human UM-SCC-1 cells xenografted in nu/nu mouse assessed as reduction in tumor at 8 mg/kg dosed every other day and co-treated with 10 mg/kg/day OGF measured on 6th day of measurable tumors relative to control; assay type: functional; set-up: scale not given: the % may be the effect or the level left
# [29] = system: UMSCC1; assay: Induction of apoptosis in human UM-SCC-1 cells assessed as increase in caspse-3 levels at 0.01 uM in presence of 1 uM OGF incubated for 6 days by flow cytometry; assay type: functional
# [30] = system: UMSCC1; assay: Growth inhibition of human UM-SCC-1 cells assessed as decrease in cell number at 0.1 uM incubated for 96 hrs in presence of 1 uM OGF by MTT assay relative to control; assay type: functional
# [31] = system: UMSCC1; assay: Induction of apoptosis in human UM-SCC-1 cells assessed as increase in caspse-3 levels at 0.01 uM in presence of 1 uM OGF incubated for 1 to 3 days by flow cytometry; assay type: functional
# [32] = system: UMSCC1; assay: Induction of apoptosis in human UM-SCC-1 cells assessed as increase in caspse-3 levels at 0.01 uM incubated for 1 day by flow cytometry; assay type: functional, cell-based
# [33] = system: UMSCC1; assay: Growth inhibition of human UM-SCC-1 cells assessed as decrease in cell number at 0.01 uM in presence of 1 uM OGF incubated for 96 hrs by MTS assay relative to control; assay type: functional
smiles,measurement,setting,value
NC(=O)[C@H](Cc1ccccc1)NC(=O)[C@H](Cc1c[nH]c2ccccc12)NC(=O)[C@@H]1CCCN1C(=O)[C@@H](N)Cc1ccc(O)cc1,growth inhibition (GI),[1],inactive
same,growth inhibition (GI),[2],inactive
CC(=O)O[C@H]1C(=O)[C@@]2(C)[C@H]([C@H](OC(=O)c3ccccc3)[C@]3(O)C[C@H](OC(=O)[C@H](O)[C@@H](NC(=O)c4ccccc4)c4ccccc4)C(C)=C1C3(C)C)[C@]1(OC(C)=O)CO[C@@H]1C[C@@H]2O [PACLITAXEL],inhibition of growth at 0.0001 µM,[3],22 to 35%
same,growth inhibition (GI),[4],36.3%
same,Activity,[5],inactive
same,Activity,[6],Active
same,growth inhibition (GI),[7],48%
same,Activity,[8],29%
same,inhibition (INH),[9],16%
same,Activity,[10],Active
same,growth inhibition (GI),[11],Active
same,growth inhibition (GI),[12],30.6%
same,Activity,[13],Toxic
same,Time,[14],<=12 day
same,Activity,[15],Active
same,fold change (FC),[16],2.7
same,growth inhibition (GI),[17],63%
same,growth inhibition (GI),[18],Active
same,Activity,[19],Toxic
same,Activity,[20],inactive
same,Time,[21],4 days
same,Activity,[22],Toxic
same,Activity,[23],29 - 33%
same,growth inhibition (GI),[24],8.8 - 26%
same,Time,[25],17 days
same,growth inhibition (GI),[26],61%
same,growth inhibition (GI),[27],68.4%
same,Activity,[28],29 - 33%
same,fold change (FC),[29],13.9
same,growth inhibition (GI),[30],78.4%
same,fold change (FC),[31],5.6
same,Activity,[32],inactive
same,growth inhibition (GI),[33],69%
CC[C@H](C)C(NC(=O)[C@@H](NC(=O)[C@H](C)NC(=O)[C@H](CC(N)=O)NC(=O)[C@H](CCCCN)NC(=O)[C@H](Cc1ccccc1)NC(=O)[C@H](CC(C)C)NC(=O)[C@@H](NC(=O)[C@@H](NC(=O)[C@H](CC(C)C)NC(=O)[C@@H]1CCCN1C(=O)[C@@H](NC(=O)[C@H](CCC(N)=O)NC(=O)[C@H](CO)NC(=O)[C@H](CCCCN)NC(=O)[C@H](CCC(=O)O)NC(=O)[C@H](CO)NC(=O)[C@@H](NC(=O)[C@H](CCSC)NC(=O)[C@H](Cc1ccccc1)NC(=O)CNC(=O)CNC(=O)[C@@H](N)Cc1ccc(O)cc1)[C@@H](C)O)C(C)O)C(C)C)[C@@H](C)O)[C@@H](C)CC)C(=O)N[C@@H](CCCCN)C(=O)N[C@@H](CC(N)=O)C(=O)N[C@@H](C)C(=O)N[C@@H](Cc1ccc(O)cc1)C(=O)N[C@@H](CCCCN)C(=O)N[C@@H](CCCCCN)C(=O)NCC(=O)N[C@@H](CCC(=O)O)C(=O)O (stereo partly specified),growth inhibition (GI),[2],inactive
C[C@@H](NC(=O)[C@@H](N)Cc1ccc(O)cc1)C(=O)NCC(=O)N(C)[C@@H](Cc1ccccc1)C(=O)NCCO,growth inhibition (GI),[1],inactive
same,growth inhibition (GI),[2],inactive
